According to patent publication US20240360101A1, “PHARMACEUTICAL SALTS OF A CHK-1 INHIBITOR” (SENTINEL ONCOLOGY LIMITED, priority 2021, published 2024):
Structures can show the parent of a compound that is named as a salt.

What was measured:
[1] = Gravimetric vapour sorption (GVS); format: physicochemical; details: for GVS weight loss, initial desorption cycle: from 50% RH to 0% RH; for GVS water gain, subsequent sorption cycle: up to 90% RH; for crystalline form (XRPD) after GVS at extremes of humidity: 0% RH and 90% RH, result in words
Procedure: Sorption isotherms were obtained using a Hiden Isochema moisture sorption analyser (model IGAsorp), controlled by IGAsorp Systems Software V6.50.48. The sample was maintained at a constant temperature (25° C.) by the instrument controls. The humidity was controlled by mixing streams of dry and wet nitrogen, with a total flow of 250 ml·min−. The instrument was verified for relative humidity (RH) content by measuring three calibrated Rotronic salt solutions (10-50-88%). The weight change of the sample was monitored as a function of humidity by a microbalance (accuracy+/−0.005 mg). A defined amount of sample was placed in a tared mesh stainless steel basket under ambient conditions. A full experimental cycle typically consisted of three scans (sorption, desorption and sorption) at a constant temperature (25° C.) and 10% RH intervals over a 0-90% range (60 minutes for each humidity level).

[2] = Solubility of the salts in biorelevant media; format: physicochemical; details: for solubility FaSSGF (pH 1.37): Fasted State Simulated Gastric Fluid; for solubility FaSSGF (pH 1.37) / solubility FaSSIF (pH 6.71) / solubility FeSSIF (pH 5.14): 25° C., 24 h, HPLC; for solubility FaSSIF (pH 6.71): Fasted State Simulated Intestinal Fluid; for solubility FeSSIF (pH 5.14): Fed State Simulated Intestinal Fluid
Procedure: Biorelevant media (DI H2O, FeSSIF, FaSSIF and FaSSGF) (2 mL) was charged. Samples were left to equilibrate (25° C.) over 24 h. Solubility measurements were taken using HPLC (see Method 1 above).

COc1cc(C2(F)CCN(C)CC2)ccc1-c1cc(Nc2cnc(C#N)cn2)n[nH]1 [Besylate Pattern A, 5-[[5-[4-(4-fluoro-1-methyl-4-piperidyl)-2-methoxy-phenyl]-1H-pyrazol-3-yl]amino]pyrazine-2-carbonitrile]
GVS sharp increase, sorption cycle ([1]; from 40% RH to 60% RH): 6%
GVS weight loss, initial desorption cycle ([1]; 25° C.): 2.5 wt %
GVS steady decrease, following desorption cycle ([1]; from 90% RH to 30% RH): ~3 wt %
GVS water gain, subsequent sorption cycle ([1]; 25° C.): 10%

COc1cc(C2(F)CCN(C)CC2)ccc1-c1cc(Nc2cnc(C#N)cn2)n[nH]1 [Besylate Pattern C, 5-[[5-[4-(4-fluoro-1-methyl-4-piperidyl)-2-methoxy-phenyl]-1H-pyrazol-3-yl]amino]pyrazine-2-carbonitrile]
GVS sharp increase, sorption cycle ([1]; between 0% RH and 20% RH): ~2.5 wt %
GVS weight loss, initial desorption cycle ([1]; 25° C.): ~3 wt %
GVS water gain, subsequent sorption cycle ([1]; 25° C.): 3.75%

COc1cc(C2(F)CCN(C)CC2)ccc1-c1cc(Nc2cnc(C#N)cn2)n[nH]1 [Maleate Pattern A, 5-[[5-[4-(4-fluoro-1-methyl-4-piperidyl)-2-methoxy-phenyl]-1H-pyrazol-3-yl]amino]pyrazine-2-carbonitrile]
crystalline form (XRPD) after GVS at extremes of humidity [1]: A new pattern was isolated at 0 and 90% RH and was named B
GVS weight gain at 90% RH, following sorption cycles ([1]; 90% RH, following sorption cycles): 4 wt %
GVS water loss, subsequent desorption cycle ([1]; down to 0% RH, 25° C.): 4%
GVS weight gain, initial sorption cycle ([1]; from 50% RH to 90% RH, 25° C.): 1.5 wt %

COc1cc(C2(F)CCN(C)CC2)ccc1-c1cc(Nc2cnc(C#N)cn2)n[nH]1 [Naphthalene-2-Sulfonate Pattern A, 5-[[5-[4-(4-fluoro-1-methyl-4-piperidyl)-2-methoxy-phenyl]-1H-pyrazol-3-yl]amino]pyrazine-2-carbonitrile]
crystalline form (XRPD) after GVS at extremes of humidity [1]: no change in the crystallinity of the solid occurred at extremes of humidity
GVS weight loss, initial desorption cycle ([1]; 25° C.): 1 wt %
GVS water gain, subsequent sorption cycle ([1]; 25° C.): ~2.25%

COc1cc(C2(F)CCN(C)CC2)ccc1-c1cc(Nc2cnc(C#N)cn2)n[nH]1 [Tosylate Pattern A, 5-[[5-[4-(4-fluoro-1-methyl-4-piperidyl)-2-methoxy-phenyl]-1H-pyrazol-3-yl]amino]pyrazine-2-carbonitrile]
crystalline form (XRPD) after GVS at extremes of humidity [1]: No form change at 0% RH and 90% RH
GVS sharp decrease, initial desorption ([1]; from 10% RH to 0% RH): ~3 wt %
GVS steady increase, subsequent sorption ([1]; from 10% RH to 90% RH): ~1%
GVS weight loss, initial desorption cycle ([1]; 25° C.): 3.5 wt %
GVS steady decrease, initial desorption ([1]; from 50% RH to 10% RH): 0.5 wt %
GVS sharp water gain, subsequent sorption ([1]; up to 10% RH): ~3%

COc1cc(C2(F)CCN(C)CC2)ccc1-c1cc(Nc2cnc(C#N)cn2)n[nH]1 [besylate pattern B, 5-[[5-[4-(4-fluoro-1-methyl-4-piperidyl)-2-methoxy-phenyl]-1H-pyrazol-3-yl]amino]pyrazine-2-carbonitrile]
solubility FaSSGF (pH 1.37) [2]: 0.55 mg/mL
solubility FaSSIF (pH 6.71) [2]: 0.04 mg/mL
solubility FeSSIF (pH 5.14) [2]: 0.57 mg/mL
Aqueous solubility mg/mL 24 h: 1.18 mg/mL
GVS weight loss, initial desorption cycle ([1]; 25° C.): 1 wt %
GVS water gain, subsequent sorption cycle ([1]; 25° C.): ~2.25%

COc1cc(C2(F)CCN(C)CC2)ccc1-c1cc(Nc2cnc(C#N)cn2)n[nH]1 [bis-besylate pattern B, 5-[[5-[4-(4-fluoro-1-methyl-4-piperidyl)-2-methoxy-phenyl]-1H-pyrazol-3-yl]amino]pyrazine-2-carbonitrile]
Aqueous solubility mg/mL 24 h: 0.06 mg/mL

COc1cc(C2(F)CCN(C)CC2)ccc1-c1cc(Nc2cnc(C#N)cn2)n[nH]1 [bis-maleate pattern B, 5-[[5-[4-(4-fluoro-1-methyl-4-piperidyl)-2-methoxy-phenyl]-1H-pyrazol-3-yl]amino]pyrazine-2-carbonitrile]
Aqueous solubility mg/mL 24 h: 0.15 mg/mL

COc1cc(C2(F)CCN(C)CC2)ccc1-c1cc(Nc2cnc(C#N)cn2)n[nH]1 [hydrochloride pattern C, 5-[[5-[4-(4-fluoro-1-methyl-4-piperidyl)-2-methoxy-phenyl]-1H-pyrazol-3-yl]amino]pyrazine-2-carbonitrile]
solubility FaSSGF (pH 1.37) [2]: 8.39 mg/mL
solubility FaSSIF (pH 6.71) [2]: 0.15 mg/mL
solubility FeSSIF (pH 5.14) [2]: 0.61 mg/mL
Aqueous solubility mg/mL 24 h: 10.37 mg/mL

COc1cc(C2(F)CCN(C)CC2)ccc1-c1cc(Nc2cnc(C#N)cn2)n[nH]1 [malonate pattern B, 5-[[5-[4-(4-fluoro-1-methyl-4-piperidyl)-2-methoxy-phenyl]-1H-pyrazol-3-yl]amino]pyrazine-2-carbonitrile]
solubility FaSSGF (pH 1.37) [2]: 3.24 mg/mL
solubility FeSSIF (pH 5.14) [2]: 0.27 mg/mL
Aqueous solubility mg/mL 24 h: 7.41 mg/mL
GVS sharp increase, sorption cycle ([1]; between 30% RH and 40% RH): ~3 wt %
GVS weight loss, initial desorption cycle ([1]; 25° C.): 5 wt %
GVS water gain, subsequent sorption cycle ([1]; 25° C.): 7.5%

COc1cc(C2(F)CCN(C)CC2)ccc1-c1cc(Nc2cnc(C#N)cn2)n[nH]1 [malonate, 5-[[5-[4-(4-fluoro-1-methyl-4-piperidyl)-2-methoxy-phenyl]-1H-pyrazol-3-yl]amino]pyrazine-2-carbonitrile]
solubility in FaSSGF (gastric fluid) compared with the free base ([2]; FaSSGF, result in words): improved solubility over the free base in FaSSGF

COc1cc(C2(F)CCN(C)CC2)ccc1-c1cc(Nc2cnc(C#N)cn2)n[nH]1 [oxalate pattern A, 5-[[5-[4-(4-fluoro-1-methyl-4-piperidyl)-2-methoxy-phenyl]-1H-pyrazol-3-yl]amino]pyrazine-2-carbonitrile]
Aqueous solubility mg/mL 24 h: 3.16 mg/mL

COc1cc(C2(F)CCN(C)CC2)ccc1-c1cc(Nc2cnc(C#N)cn2)n[nH]1 [sulphate pattern D, 5-[[5-[4-(4-fluoro-1-methyl-4-piperidyl)-2-methoxy-phenyl]-1H-pyrazol-3-yl]amino]pyrazine-2-carbonitrile]
Aqueous solubility mg/mL 24 h: 1.6 mg/mL

COc1cc(C2(F)CCN(C)CC2)ccc1-c1cc(Nc2cnc(C#N)cn2)n[nH]1 [tosylate pattern C, 5-[[5-[4-(4-fluoro-1-methyl-4-piperidyl)-2-methoxy-phenyl]-1H-pyrazol-3-yl]amino]pyrazine-2-carbonitrile]
solubility FaSSGF (pH 1.37) [2]: 0.32 mg/mL
solubility FaSSIF (pH 6.71) [2]: 0.04 mg/mL
solubility FeSSIF (pH 5.14) [2]: 0.61 mg/mL
Aqueous solubility mg/mL 24 h: 1.55 mg/mL
